According to the supplement of paper PMC5844555:

Tests used:
Assay in all cases: 3' UTR reporter interaction score (median-centred robust z-score of log2 firefly/Renilla activity); higher = less repression of the 3' UTR reporter
Details in all cases: HEK293T; 48 h
FBXW7 = system: FBXW7
How it was run: (§1)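 Firefly and Renilla luciferase activities were read 48 h post-transfection in HEK293T cells (10,000/well, 96-well plates). The cells had received 100 ng firefly luc2P reporter bearing the gene's 3' UTR, 20 ng Renilla pRL-TK control and 2.5 pmol miRNA mimic via DharmaFECT Duo. The interaction score, where more negative means interaction, is a per-plate robust z-score (median, median absolute deviation) of the log firefly/Renilla ratio, median-centred per miRNA and averaged over at least two independent screens.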

MYCN = system: MYCN
How it was run: as §1

RB1 = system: RB1
How it was run: as §1

ZEB2 = system: ZEB2
How it was run: as §1

MYB = system: MYB
How it was run: as §1

BRCA2 = system: BRCA2
How it was run: as §1

NOTCH1 = system: NOTCH1
How it was run: as §1

MYC = system: MYC
How it was run: as §1

MYT1L = system: MYT1L
How it was run: as §1

EZH2 = system: EZH2
How it was run: as §1

PHF6 = system: PHF6
How it was run: as §1

TP53 = system: TP53
How it was run: as §1

PHOX2B = system: PHOX2B
How it was run: as §1

HRAS = system: HRAS
How it was run: as §1

Sequence	3' UTR reporter interaction score (FBXW7)	3' UTR reporter interaction score (MYCN)	3' UTR reporter interaction score (RB1)	3' UTR reporter interaction score (ZEB2)	3' UTR reporter interaction score (MYB)	3' UTR reporter interaction score (BRCA2)	3' UTR reporter interaction score (NOTCH1)	3' UTR reporter interaction score (MYC)	3' UTR reporter interaction score (MYT1L)	3' UTR reporter interaction score (EZH2)	3' UTR reporter interaction score (PHF6)	3' UTR reporter interaction score (TP53)	3' UTR reporter interaction score (PHOX2B)	3' UTR reporter interaction score (HRAS)
UUUUGCACCUUUUGGAGUGAA	-3.44	0.905	-1.86	-4.16	1	0.467	1.27	0.393	-0.182	-0.000424	0.706	0.767	-0.86	-0.429
UUUUUGCGAUGUGUUCCUAAUA	-2.28	-0.818	-2.29	-2.41	0.165	0.151	0.568	0.66	0.157	1.27	0.21	0.414	0.492	0.633
